Laboratory results: patent US10828305B2 (SHANGHAI PHARMACEUTICALS HOLDING CO., LTD., priority 2016, dated 2020)
Read-outs that look alike come from different tables or passages of the source.

Legend:
[1] = test system: human gastric cancer NCI-N87 xenograft; assay: HER2 overexpressing human gastric cancer NCI-N87 xenograft model in nude mice; type: in vivo, Balb/c nude mice; conditions: 50MPK (BID), oral, 22 days
[2] = test system: human breast cancer BT-474 xenograft; conditions: 50MPK (BID), oral, 20 days
ErbB2 kinase = ErbB2 kinase (Homo sapiens, UniProt P04626); assay: Enzymatic experiment on ErbB2 (HTRF kinEASE-TK); type: biochemical
Chain of ErbB2 kinase (P04626 23-1255): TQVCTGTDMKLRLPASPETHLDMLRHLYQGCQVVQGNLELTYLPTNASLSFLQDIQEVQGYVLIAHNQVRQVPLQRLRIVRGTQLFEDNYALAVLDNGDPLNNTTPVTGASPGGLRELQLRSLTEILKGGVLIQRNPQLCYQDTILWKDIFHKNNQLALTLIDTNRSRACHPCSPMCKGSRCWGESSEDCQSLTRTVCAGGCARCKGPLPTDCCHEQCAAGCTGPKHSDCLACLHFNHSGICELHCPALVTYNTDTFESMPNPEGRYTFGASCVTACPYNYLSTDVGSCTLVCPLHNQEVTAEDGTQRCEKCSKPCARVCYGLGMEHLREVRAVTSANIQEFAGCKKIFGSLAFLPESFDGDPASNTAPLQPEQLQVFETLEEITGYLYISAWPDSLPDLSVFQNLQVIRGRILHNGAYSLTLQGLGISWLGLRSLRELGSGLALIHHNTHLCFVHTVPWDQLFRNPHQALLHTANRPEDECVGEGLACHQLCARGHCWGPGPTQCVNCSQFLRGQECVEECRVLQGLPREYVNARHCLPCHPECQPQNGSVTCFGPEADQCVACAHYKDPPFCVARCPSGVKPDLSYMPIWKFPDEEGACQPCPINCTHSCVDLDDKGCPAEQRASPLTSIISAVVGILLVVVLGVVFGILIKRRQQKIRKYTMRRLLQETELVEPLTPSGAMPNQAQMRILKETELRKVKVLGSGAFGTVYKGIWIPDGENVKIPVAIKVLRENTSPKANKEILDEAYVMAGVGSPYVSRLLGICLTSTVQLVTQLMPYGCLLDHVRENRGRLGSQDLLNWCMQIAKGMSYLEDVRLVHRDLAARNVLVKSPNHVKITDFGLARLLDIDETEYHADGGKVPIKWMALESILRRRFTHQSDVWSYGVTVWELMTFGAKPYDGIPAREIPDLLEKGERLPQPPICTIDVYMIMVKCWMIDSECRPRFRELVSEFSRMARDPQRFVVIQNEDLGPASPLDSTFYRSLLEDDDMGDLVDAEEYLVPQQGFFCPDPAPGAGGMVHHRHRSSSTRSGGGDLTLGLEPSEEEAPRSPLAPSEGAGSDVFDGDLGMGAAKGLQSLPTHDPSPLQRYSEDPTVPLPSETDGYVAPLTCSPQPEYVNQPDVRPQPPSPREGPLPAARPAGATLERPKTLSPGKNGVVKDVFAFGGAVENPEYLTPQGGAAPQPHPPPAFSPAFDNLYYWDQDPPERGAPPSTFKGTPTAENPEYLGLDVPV
Procedure, shortened: (§1)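 HTRF kinEASE-TK with biotinylated TK substrate in HEPES pH 7.0 buffer containing MnCl2, MgCl2 and DTT; ErbB2 at 0.06 ng/μl with 4 μM ATP, EGFR at 0.06 units/μl with 1.65 μM ATP, 30 min at room temperature after 5 min enzyme/substrate–compound preincubation. Ten-point 3-fold dilutions; Eu antibody/SA-XL665 detection, 665/620 ratio.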

EGFR kinase = EGFR kinase (Homo sapiens, UniProt P00533); assay: Enzymatic experiment on EGFR (HTRF kinEASE-TK); type: biochemical
Chain of EGFR kinase (P00533 25-1210): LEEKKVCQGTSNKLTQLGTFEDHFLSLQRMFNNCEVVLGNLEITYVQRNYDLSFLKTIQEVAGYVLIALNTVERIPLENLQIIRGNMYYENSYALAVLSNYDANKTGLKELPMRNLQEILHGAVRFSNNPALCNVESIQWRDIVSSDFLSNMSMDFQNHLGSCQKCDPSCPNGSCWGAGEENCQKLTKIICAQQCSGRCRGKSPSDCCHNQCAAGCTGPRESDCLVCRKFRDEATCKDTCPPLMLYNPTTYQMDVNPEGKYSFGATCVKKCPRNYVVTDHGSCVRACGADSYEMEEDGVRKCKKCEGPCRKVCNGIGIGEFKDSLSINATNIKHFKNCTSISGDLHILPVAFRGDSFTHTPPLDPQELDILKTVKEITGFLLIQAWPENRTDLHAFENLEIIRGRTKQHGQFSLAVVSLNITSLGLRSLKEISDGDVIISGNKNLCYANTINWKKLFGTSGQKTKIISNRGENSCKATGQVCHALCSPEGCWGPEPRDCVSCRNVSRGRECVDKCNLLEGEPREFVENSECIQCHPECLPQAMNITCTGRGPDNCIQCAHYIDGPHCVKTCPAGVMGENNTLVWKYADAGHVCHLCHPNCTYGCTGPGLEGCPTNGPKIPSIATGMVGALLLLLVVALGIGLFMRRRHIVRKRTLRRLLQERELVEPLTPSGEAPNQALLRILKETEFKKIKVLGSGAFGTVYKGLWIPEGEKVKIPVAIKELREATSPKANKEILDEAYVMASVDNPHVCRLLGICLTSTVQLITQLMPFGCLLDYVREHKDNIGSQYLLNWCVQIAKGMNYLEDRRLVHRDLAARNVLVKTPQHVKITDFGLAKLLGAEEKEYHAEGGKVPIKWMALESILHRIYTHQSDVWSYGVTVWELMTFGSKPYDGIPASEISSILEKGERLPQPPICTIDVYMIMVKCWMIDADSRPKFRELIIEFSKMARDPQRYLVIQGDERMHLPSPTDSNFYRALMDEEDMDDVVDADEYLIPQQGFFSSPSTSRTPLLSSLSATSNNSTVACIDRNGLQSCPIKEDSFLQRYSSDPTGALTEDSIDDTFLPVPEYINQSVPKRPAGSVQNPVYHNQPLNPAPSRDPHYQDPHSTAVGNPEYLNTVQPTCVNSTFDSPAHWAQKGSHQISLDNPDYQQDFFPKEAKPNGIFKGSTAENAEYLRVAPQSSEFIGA
Procedure, shortened: as §1

N87 = assay: Proliferation inhibition assay in vitro, N87 (CellTiter-Glo); type: cell-based; conditions: Homo sapiens; 72 hours; read-out: IC50(nM) cell N87
Procedure, shortened: (§2)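 Cells were seeded at 8.8×10^4 cells/mL for BT-474 or 6.6×10^4 cells/mL for N87 and grown overnight. Compound was added at 9 concentrations in duplicate for 72 h at 37 °C, 5% CO2. Viability was measured by CellTiter-Glo.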

BT-474 = assay: Proliferation inhibition assay in vitro, BT-474 (CellTiter-Glo); type: cell-based; conditions: Homo sapiens, 72 hours, read-out: IC50(nM) cell BT-474
Procedure, shortened: as §2

[3] = ATP 4 μM, read-out: Kinase IC50 (nM) in vitro ErbB2
[4] = ATP 1.65 μM, read-out: Kinase IC50 (nM) in vitro EGFR

SMILES | IC50 (ErbB2 kinase; [3]) [nM] | IC50 (EGFR kinase; [4]) [nM] | IC50 (BT-474) [nM] | tumor volume inhibition rate (GI %) [1] [%] | tumor volume inhibition rate (GI %) [2] [%] | IC50 (N87) [nM] | IC50 (ErbB2 kinase) [nM] | IC50 (EGFR kinase) [nM]
CS(=O)(=O)CCNCc1ccc(-c2ccc3ncnc(Nc4ccc(OCc5cccc(F)c5)c(Cl)c4)c3c2)o1 [Lapatinib, reference compound] | – | – | – | 87.8 | 19.2 | – | – | –
COCC(=O)NC/C=C/c1ccc2ncnc(Nc3ccc(Oc4cc5nncn5cn4)c(C)c3)c2c1 [Embodiment 14, 2-methoxy-N-((E)-3-(4-(3-methyl-4-([1,2,4]triazolo[4,3-c]pyrimidin-7-yloxy)anilino)-6-quinazolinyl)allyl)acetamide] | 1.7 | 115 | 35.2 | – | – | 94.1 | – | –
Cc1cc(Nc2ncnc3ccc(-c4cccc(CNCCS(C)(=O)=O)c4)cc23)ccc1Oc1cc2nncn2cn1 [Embodiment 68] | 2.2 | 5.4 | 38.7 | – | – | 52 | – | –
Cc1cc(Nc2ncnc3ccc(NC(=O)Oc4ccccc4)cc23)ccc1Oc1cc2nncn2cn1 [Embodiment 66] | – | – | 275 | – | – | 487 | 12.9 | 567
Cc1cc(Nc2ncnc3ccc(-c4ccc(CNCCNS(C)(=O)=O)o4)cc23)ccc1Oc1cc2nncn2cn1 [Embodiment 36, N-(2-(((5-(4-((4-([1,2,4]triazolo[4,3-c]pyrimidin-7-yloxy)-3-methylphenyl)amino)quinazolin-6-yl)furan-2-yl)methyl)amino)ethyl)methylsulfonamide] | 1.5 | 1.9 | 21.5 | – | – | 47.5 | – | –
C=CC(=O)Nc1cccc(-c2ccc3ncnc(Nc4ccc(Oc5cc6nncn6cn5)c(C)c4)c3c2)c1 [Embodiment 75, N-(3-(4-((4-([1,2,4]triazolo[4,3-c]pyrimidin-7-yloxy)-3-methylphenyl)amino)quinazolin-6-yl)phenyl)acrylamide] | 1.34 | 19.2 | 9 | – | – | 15 | – | –
C=CC(=O)Nc1cncc(-c2ccc3ncnc(Nc4ccc(Oc5cc6nncn6cn5)c(C)c4)c3c2)c1 [Embodiment 52, N-(5-(4-((4-([1,2,4]triazolo[4,3-c]pyrimidin-7-yloxy)-3-methylphenyl)amino)quinazolin-6-yl)pyridin-3-yl)acrylamide] | 2.35 | 21.6 | 30.4 | – | – | 117 | – | –

Further lines, with some results ahead:

IC50 (ErbB2 kinase; [3]) [nM] | IC50 (EGFR kinase; [4]) [nM] | IC50 (BT-474) [nM] | SMILES | tumor volume inhibition rate (GI %) [1] [%] | tumor volume inhibition rate (GI %) [2] [%] | IC50 (N87) [nM] | IC50 (ErbB2 kinase) [nM] | IC50 (EGFR kinase) [nM]
3.4 | 14.7 | 13.6 | C=C(F)C(=O)Nc1cc2c(Nc3ccc(Oc4cc5nncn5cn4)c(C)c3)ncnc2cc1F [Embodiment 125, N-(4-((4-([1,2,4]triazolo[4,3-c]pyrimidin-7-yloxy)-3-methylphenyl)amino)-7-fluoroquinolin-6-yl)-2-fluoroacryamide] | – | – | 6.8 | – | –
4.84 | 11.4 | 6.4 | Cc1cc(Nc2ncnc3ccc(NC(=O)/C=C/[C@@H]4CCCN4C)cc23)ccc1Oc1cc2nncn2cn1 [Embodiment 97, (S,E)-N-(4-((4-([1,2,4]triazolo[4,3-c]pyrimidin-7-yloxy)-3-methylphenyl)amino)quinazolin-6-yl)-3-(1-methylpyrrolidin-2-yl)acrylamide] | – | – | 10 | – | –
2.8 | 2.3 | 9.5 | C=CC(=O)Nc1ccc2ncnc(Nc3ccc(Oc4cc5nncn5cn4)c(C)c3)c2c1 [Embodiment 124, N-(4-((4-([1,2,4]triazolo[4,3-c]pyrimidin-7-yloxy)-3-methylphenyl)amino)quinazolin-6-yl) acrylamide] | – | – | 11.4 | – | –
2.7 | 87.2 | 37 | Cc1cc(Nc2ncnc3ccc(/C=C/CNC(=O)C4CC4)cc23)ccc1Oc1cc2nncn2cn1 [Embodiment 122, (E)-N-(3-(4-((4-([1,2,4]triazolo[4,3-c]pyrimidin-7-yloxy)-3-methylphenyl)amino)quinazolin-6-yl)allyl)cyclopropylcarboxamide] | – | – | 92 | – | –
3.6 | 100 | 3.1 | C=CC(=O)N1CC=C(c2ccc3ncnc(Nc4ccc(Oc5cc6nncn6cn5)c(C)c4)c3c2)CC1 [Embodiment 117, 1-(4-(4-((4-([1,2,4]triazolo[4,3-c]pyrimidin-7-yloxy)-3-methylphenyl)amino)quinazolin-6-yl)-5,6-dihydropyridin-1(2H)-yl)prop-2-en-1-one] | – | – | 2.1 | – | –
